Target: T1, human FSH receptor (Homo sapiens, UniProt P23945)
T1 construct: expressed in transfected cells; host or cells: Chinese Hamster Ovary (CHO) cells
T1 sequence (P23945 18-695): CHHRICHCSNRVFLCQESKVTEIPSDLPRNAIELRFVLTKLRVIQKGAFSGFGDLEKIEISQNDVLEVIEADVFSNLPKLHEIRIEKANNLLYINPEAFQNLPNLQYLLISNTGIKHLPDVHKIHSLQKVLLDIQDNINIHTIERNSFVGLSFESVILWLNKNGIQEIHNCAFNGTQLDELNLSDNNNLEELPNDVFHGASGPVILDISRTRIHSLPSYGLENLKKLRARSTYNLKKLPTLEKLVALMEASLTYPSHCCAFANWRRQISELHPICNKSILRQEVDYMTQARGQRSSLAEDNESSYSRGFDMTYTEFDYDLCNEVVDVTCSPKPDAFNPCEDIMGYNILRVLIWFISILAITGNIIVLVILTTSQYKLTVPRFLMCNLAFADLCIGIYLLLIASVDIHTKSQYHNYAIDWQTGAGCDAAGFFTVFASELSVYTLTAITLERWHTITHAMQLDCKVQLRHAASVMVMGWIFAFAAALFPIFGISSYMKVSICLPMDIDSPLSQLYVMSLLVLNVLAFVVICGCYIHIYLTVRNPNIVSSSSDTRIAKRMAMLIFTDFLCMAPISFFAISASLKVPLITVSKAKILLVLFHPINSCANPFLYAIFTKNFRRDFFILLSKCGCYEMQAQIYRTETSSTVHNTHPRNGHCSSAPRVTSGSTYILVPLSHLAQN
Test: CHO-FSH in vitro bioactivity (CRE-luciferase reporter, agonistic or antagonistic set-up)
Type: cell-based
Conditions: CHO cells stably transfected with human FSH receptor and CRE-luciferase; either agonistic or antagonistic (rec-hFSH, 10 mU/ml) assay set-up or both / at least one of the assays; read-out: EC50 (IC50)
Protocol: FSH activity of compounds were tested in Chinese Hamster Ovary (CHO) cells stably transfected with the human FSH receptor and cotransfected with a cAMP responsive element (CRE)/promotor directing the expression of a firefly luciferase reporter gene. Binding of ligand to the Gs-coupled FSH receptor will result in an increase of cAMP, which in turn will induce an increased transactivation of the luciferase reporter construct. To test antagonistic properties recombinant FSH in a concentration that induces approximately 80% of the maximal stimulation of cAMP accumulation in the absence of test compound was added (rec-hFSH, 10 mU/ml). The luciferase signal was quantified using a luminescence counter. For test compounds, EC50 values (concentration of test compound causing half-maximal (50%) stimulation or reduction) were calculated For that purpose the software program GraphPad PRISM, version 3.0 (GraphPad software Inc., San Diego) was used.

EC50, < 0.1 µM:
CC(=O)N1c2cc(OCC(=O)N(C)C)c(NC(=O)c3ccc(-c4ccccc4)cc3)cc2C(C)(c2ccccc2)CC1(C)C (stereo not shown) [Example 16, Biphenyl-4-carboxylic acid (1-acetyl-7-dimethylcarbamoylmethoxy-2,2,4-trimethyl-4-phenyl-1,2,3,4-tetrahydro-quinolin-6-yl)-amide]
CC(=O)N1c2cc(N(C)C)c(NC(=O)C3CCCC3)cc2C(C)(c2ccccc2)CC1(C)C (stereo not shown) [Example 37, Cyclopentanecarboxylic acid (1-acetyl-7-dimethylamino-2,2,4-trimethyl-4-phenyl-1,2,3,4-tetrahydro-quinolin-6yl)-amide]
CC(=O)N1c2cc(N(C)C)c(NC(=O)C(C)C)cc2C(C)(c2ccccc2)CC1(C)C (stereo not shown) [Example 38, N-(1-Acetyl-7-dimethylamino-2,2,4-trimethyl-4-phenyl-1,2,3,4-tetrahydro-quinolin-6-yl)-isobutyramide]
CCNc1cc2c(cc1NC(=O)c1ccc(-c3ccccc3)cc1)C(C)(c1ccccc1)CC(C)(C)N2C(C)=O (stereo not shown) [Example 41, Biphenyl-4-carboxylic acid (1-acetyl-7-ethylamino-2,2,4-trimethyl-4-phenyl-1,2,3,4-tetrahydro-quinolin-6-yl)amide]
